Marks after values point to notes of the source that are not given here.
Experiments:
[1] = Dynamic light scattering: LNP particle size and PDI; type: physicochemical; conditions: for PDI N/P:6 / Size (nm) N/P:6: LNP
Procedure, shortened: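 The LNPs were made by microfluidic mixing of the lipids in ethanol with mRNA in pH 4.0 citrate, then dialyzed into PBS pH 7.4. They were diluted in PBS pH 7.4, and particle size and PDI were measured by dynamic light scattering.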

[2] = Plate-based fluorescence (RiboGreen) assay: nucleic acid cargo content and encapsulation efficiency of LNPs; type: physicochemical; conditions: for EE (%) N/P:6: LNP
Procedure, shortened: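 LNPs made by microfluidic mixing of ethanolic lipids with mRNA in pH 4.0 citrate, dialyzed into PBS pH 7.4. Cargo quantified by RiboGreen fluorescence against a standard curve: Triton-lysed samples give total, TE-only samples give free cargo; encapsulation efficiency from their ratio.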

mouse organs = test: In vivo activity screening in mice: organ mean total flux (p/s) of luciferase activity after injection of F2 LNP pools (Table 6, FIG. 7A-7C); conditions: luciferase mRNA
Procedure, shortened: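 C57BL/6J mice given one tail-vein injection of pooled Formulation F2 LNPs carrying firefly luciferase mRNA (0.25-3 mg/kg) in PBS. At 4-6 h, s.c. D-luciferin given; organs imaged ex vivo by IVIS within 10-15 min, after saline cardiac perfusion. Mean total flux (p/s) per organ ROI.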

[3] = LNP compositions for in vivo mouse study, four formulations (F1-F4) pooled, or pools of four compounds
[4] = LNP compositions for Formulation F2 Study

In the case of `CCCCC/C=C\C/C=C\CCCCCCCC(=O)OCC(COC(=O)CCCCCCC/C=C\C/C=C\CCCCC)(COC(=O)CCCCCCC/C=C\C/C=C\CCCCC)COC(=O)CCC(CCCCCC)OC(=O)NCCN1CCCC1` (centres unmarked) [Compound 2, 2-((((9Z,12Z)-octadeca-9,12-dienoyl)oxy)methyl)-2-(((4-(((2-(pyrrolidin-1-yl)ethyl)carbamoyl)oxy)decanoyl)oxy)methyl)propane-1,3-diyl (9Z,9′Z,12Z,12′Z)-bis(octadeca-9,12-dienoate)], the “Particle Size (nm)” value ([1]; LNP compositions for in vivo mouse study, four formulations (F1-F4) of the lipid compound pooled, or pools of four compounds (sixteen compositions)) is reported as 82.3 nm, the PDI [1, 3] is reported as 0.11 and the “PDI N/P:6” value ([1]; Formulation F1, N/P 6) is reported as 0.16. For the same molecule, the “Size (nm) N/P:6” value ([1]; Formulation F1, N/P 6) was 75 ± 8 nm, the “PDI N/P:6” value ([1]; Formulation F2, N/P 6) was 0.04 and the “Size (nm) N/P:6” value ([1]; Formulation F2, N/P 6) was 84 ± 1 nm. The “PDI N/P:6” value ([1]; Formulation F3, N/P 6) was 0.04, the “Size (nm) N/P:6” value ([1]; Formulation F3, N/P 6) was 91 ± 0 nm and the “PDI N/P:6” value ([1]; Formulation F4, N/P 6) was 0.18. The “Size (nm) N/P:6” value ([1]; Formulation F4, N/P 6) was 65 ± 2 nm, the EE % [2, 3] was 96% and the “mRNA Content” value [2, 3] was 86 µg/mL. For the same molecule, the “EE (%) N/P:6” value ([2]; Formulation F1, N/P 6) was 98%, the “EE (%) N/P:6” value ([2]; Formulation F2, N/P 6) was 98% and the “EE (%) N/P:6” value ([2]; Formulation F3, N/P 6) was 98%. The “EE (%) N/P:6” value ([2]; Formulation F4, N/P 6) was 97%, the “Organ Mean Total Flux Femur” value (mouse organs; Mouse 1, dose 0.3 mg/kg) was 0.8 p/s (×10^6) and the “Organ Mean Total Flux Heart” value (mouse organs; Mouse 1, dose 0.3 mg/kg) was 0.2 p/s (×10^6). The “Organ Mean Total Flux Kidney” value (mouse organs; Mouse 1, dose 0.3 mg/kg) was 0.7 p/s (×10^6), the “Organ Mean Total Flux Liver” value (mouse organs; Mouse 1, dose 0.3 mg/kg) was 99.8 p/s (×10^6) and the “Organ Mean Total Flux Lung” value (mouse organs; Mouse 1, dose 0.3 mg/kg) was 2.6 p/s (×10^6). For the same molecule, the “Organ Mean Total Flux Muscle” value (mouse organs; Mouse 1, dose 0.3 mg/kg) was 0.5 p/s (×10^6), the “Organ Mean Total Flux Pancreas” value (mouse organs; Mouse 1, dose 0.3 mg/kg) was 0.2 p/s (×10^6) and the “Organ Mean Total Flux Spleen” value (mouse organs; Mouse 1, dose 0.3 mg/kg) was 15.6 p/s (×10^6).

In the case of `CCCCC/C=C\C/C=C\CCCCCCCCC(CCCCCCCC/C=C\C/C=C\CCCCC)OC(=O)CCCN(C)C` [MC3, reference compound], the PDI [1, 4] is reported as 0.098, the “Particle Size (nm)” value [1, 4] is reported as 87.8 nm and the EE % [2, 4] is reported as 98%. For the same molecule, the “Organ Mean Total Flux Femur” value (mouse organs; Mouse 1, dose 0.3 mg/kg) was 8.5 p/s (×10^6), the “Organ Mean Total Flux Heart” value (mouse organs; Mouse 1, dose 0.3 mg/kg) was 2.8 p/s (×10^6) and the “Organ Mean Total Flux Kidney” value (mouse organs; Mouse 1, dose 0.3 mg/kg) was 1.9 p/s (×10^6). For the same molecule, the “Organ Mean Total Flux Liver” value (mouse organs; Mouse 1, dose 0.3 mg/kg) was 6896 p/s (×10^6), the “Organ Mean Total Flux Lung” value (mouse organs; Mouse 1, dose 0.3 mg/kg) was 17.2 p/s (×10^6) and the “Organ Mean Total Flux Muscle” value (mouse organs; Mouse 1, dose 0.3 mg/kg) was 7.5 p/s (×10^6). The “Organ Mean Total Flux Pancreas” value (mouse organs; Mouse 1, dose 0.3 mg/kg) was 2.6 p/s (×10^6), the “Organ Mean Total Flux Spleen” value (mouse organs; Mouse 1, dose 0.3 mg/kg) was 22.3 p/s (×10^6) and the “Organ Mean Total Flux Femur” value (mouse organs; Mouse 2, dose 1.0 mg/kg) was 9.9 p/s (×10^6). The “Organ Mean Total Flux Heart” value (mouse organs; Mouse 2, dose 1.0 mg/kg) was 17.0 p/s (×10^6), the “Organ Mean Total Flux Kidney” value (mouse organs; Mouse 2, dose 1.0 mg/kg) was 16.6 p/s (×10^6) and the “Organ Mean Total Flux Liver” value (mouse organs; Mouse 2, dose 1.0 mg/kg) was 15500 p/s (×10^6). The “Organ Mean Total Flux Lung” value (mouse organs; Mouse 2, dose 1.0 mg/kg) was 60.5 p/s (×10^6), the “Organ Mean Total Flux Muscle” value (mouse organs; Mouse 2, dose 1.0 mg/kg) was 16.6 p/s (×10^6) and the “Organ Mean Total Flux Pancreas” value (mouse organs; Mouse 2, dose 1.0 mg/kg) was 7.4 p/s (×10^6). The “Organ Mean Total Flux Spleen” value (mouse organs; Mouse 2, dose 1.0 mg/kg) was 23.0 p/s (×10^6), the “Organ Mean Total Flux Femur” value (mouse organs; Mouse 3, dose 1.0 mg/kg) was 6.9 p/s (×10^6) and the “Organ Mean Total Flux Heart” value (mouse organs; Mouse 3, dose 1.0 mg/kg) was 8.5 p/s (×10^6). For the same molecule, the “Organ Mean Total Flux Kidney” value (mouse organs; Mouse 3, dose 1.0 mg/kg) was 7.3 p/s (×10^6), the “Organ Mean Total Flux Liver” value (mouse organs; Mouse 3, dose 1.0 mg/kg) was 9707 p/s (×10^6) and the “Organ Mean Total Flux Lung” value (mouse organs; Mouse 3, dose 1.0 mg/kg) was 106.4 p/s (×10^6). The “Organ Mean Total Flux Muscle” value (mouse organs; Mouse 3, dose 1.0 mg/kg) was 23.6 p/s (×10^6), the “Organ Mean Total Flux Pancreas” value (mouse organs; Mouse 3, dose 1.0 mg/kg) was 2.7 p/s (×10^6) and the “Organ Mean Total Flux Spleen” value (mouse organs; Mouse 3, dose 1.0 mg/kg) was 22.8 p/s (×10^6). The “Organ Mean Total Flux Femur” value (mouse organs; Mouse 5, dose 0.5 mg/kg) was 4.8 p/s (×10^6), the “Organ Mean Total Flux Heart” value (mouse organs; Mouse 5, dose 0.5 mg/kg) was 5.7 p/s (×10^6) and the “Organ Mean Total Flux Kidney” value (mouse organs; Mouse 5, dose 0.5 mg/kg) was 18.6 p/s (×10^6). For the same molecule, the “Organ Mean Total Flux Liver” value (mouse organs; Mouse 5, dose 0.5 mg/kg) was 5667 p/s (×10^6), the “Organ Mean Total Flux Lung” value (mouse organs; Mouse 5, dose 0.5 mg/kg) was 34.5 p/s (×10^6) and the “Organ Mean Total Flux Muscle” value (mouse organs; Mouse 5, dose 0.5 mg/kg) was 10.0 p/s (×10^6). The “Organ Mean Total Flux Pancreas” value (mouse organs; Mouse 5, dose 0.5 mg/kg) was 1.9 p/s (×10^6), the “Organ Mean Total Flux Spleen” value (mouse organs; Mouse 5, dose 0.5 mg/kg) was 17.6 p/s (×10^6) and the “Organ Mean Total Flux Femur” value (mouse organs; Mouse 6, dose 0.5 mg/kg) was 3.3 p/s (×10^6). For the same molecule, the “Organ Mean Total Flux Heart” value (mouse organs; Mouse 6, dose 0.5 mg/kg) was 5.2 p/s (×10^6), the “Organ Mean Total Flux Kidney” value (mouse organs; Mouse 6, dose 0.5 mg/kg) was 3.9 p/s (×10^6) and the “Organ Mean Total Flux Liver” value (mouse organs; Mouse 6, dose 0.5 mg/kg) was 4796 p/s (×10^6). The “Organ Mean Total Flux Lung” value (mouse organs; Mouse 6, dose 0.5 mg/kg) was 28.6 p/s (×10^6), the “Organ Mean Total Flux Muscle” value (mouse organs; Mouse 6, dose 0.5 mg/kg) was 8.2 p/s (×10^6) and the “Organ Mean Total Flux Pancreas” value (mouse organs; Mouse 6, dose 0.5 mg/kg) was 3.6 p/s (×10^6). The “Organ Mean Total Flux Spleen” value (mouse organs; Mouse 6, dose 0.5 mg/kg) was 11.7 p/s (×10^6), the “Organ Mean Total Flux Femur” value (mouse organs; Mouse 9, dose 0.5 mg/kg) was 3.8 p/s (×10^6) and the “Organ Mean Total Flux Heart” value (mouse organs; Mouse 9, dose 0.5 mg/kg) was 4.1 p/s (×10^6). The “Organ Mean Total Flux Kidney” value (mouse organs; Mouse 9, dose 0.5 mg/kg) was 2.1 p/s (×10^6), the “Organ Mean Total Flux Liver” value (mouse organs; Mouse 9, dose 0.5 mg/kg) was 3903 p/s (×10^6) and the “Organ Mean Total Flux Lung” value (mouse organs; Mouse 9, dose 0.5 mg/kg) was 12.7 p/s (×10^6). For the same molecule, the “Organ Mean Total Flux Muscle” value (mouse organs; Mouse 9, dose 0.5 mg/kg) was 5.6 p/s (×10^6), the “Organ Mean Total Flux Pancreas” value (mouse organs; Mouse 9, dose 0.5 mg/kg) was 1.1 p/s (×10^6) and the “Organ Mean Total Flux Spleen” value (mouse organs; Mouse 9, dose 0.5 mg/kg) was 5.4 p/s (×10^6). The “Organ Mean Total Flux Femur” value (mouse organs; Mouse 11, dose 0.5 mg/kg) was 2.2 p/s (×10^6), the “Organ Mean Total Flux Heart” value (mouse organs; Mouse 11, dose 0.5 mg/kg) was 2.9 p/s (×10^6) and the “Organ Mean Total Flux Kidney” value (mouse organs; Mouse 11, dose 0.5 mg/kg) was 1.0 p/s (×10^6). For the same molecule, the “Organ Mean Total Flux Liver” value (mouse organs; Mouse 11, dose 0.5 mg/kg) was 2603 p/s (×10^6), the “Organ Mean Total Flux Lung” value (mouse organs; Mouse 11, dose 0.5 mg/kg) was 12.1 p/s (×10^6) and the “Organ Mean Total Flux Muscle” value (mouse organs; Mouse 11, dose 0.5 mg/kg) was 2.7 p/s (×10^6). For the same molecule, the “Organ Mean Total Flux Pancreas” value (mouse organs; Mouse 11, dose 0.5 mg/kg) was 0.7 p/s (×10^6), the “Organ Mean Total Flux Spleen” value (mouse organs; Mouse 11, dose 0.5 mg/kg) was 4.0 p/s (×10^6) and the “Organ Mean Total Flux Femur” value (mouse organs; Mouse 12, dose 0.5 mg/kg) was 5.8 p/s (×10^6). The “Organ Mean Total Flux Heart” value (mouse organs; Mouse 12, dose 0.5 mg/kg) was 2.4 p/s (×10^6), the “Organ Mean Total Flux Kidney” value (mouse organs; Mouse 12, dose 0.5 mg/kg) was 53.9 p/s (×10^6) and the “Organ Mean Total Flux Liver” value (mouse organs; Mouse 12, dose 0.5 mg/kg) was 2307 p/s (×10^6). For the same molecule, the “Organ Mean Total Flux Lung” value (mouse organs; Mouse 12, dose 0.5 mg/kg) was 13.7 p/s (×10^6), the “Organ Mean Total Flux Muscle” value (mouse organs; Mouse 12, dose 0.5 mg/kg) was 4.1 p/s (×10^6) and the “Organ Mean Total Flux Pancreas” value (mouse organs; Mouse 12, dose 0.5 mg/kg) was 9.6 p/s (×10^6). For the same molecule, the “Organ Mean Total Flux Spleen” value (mouse organs; Mouse 12, dose 0.5 mg/kg) was 8.6 p/s (×10^6), the “Organ Mean Total Flux Femur” value (mouse organs; Mouse 13, dose 0.5 mg/kg) was 2.7 p/s (×10^6) and the “Organ Mean Total Flux Heart” value (mouse organs; Mouse 13, dose 0.5 mg/kg) was 5.0 p/s (×10^6). The “Organ Mean Total Flux Kidney” value (mouse organs; Mouse 13, dose 0.5 mg/kg) was 0.9 p/s (×10^6), the “Organ Mean Total Flux Liver” value (mouse organs; Mouse 13, dose 0.5 mg/kg) was 1767 p/s (×10^6) and the “Organ Mean Total Flux Lung” value (mouse organs; Mouse 13, dose 0.5 mg/kg) was 8.3 p/s (×10^6). The “Organ Mean Total Flux Muscle” value (mouse organs; Mouse 13, dose 0.5 mg/kg) was 2.8 p/s (×10^6), the “Organ Mean Total Flux Pancreas” value (mouse organs; Mouse 13, dose 0.5 mg/kg) was 0.8 p/s (×10^6) and the “Organ Mean Total Flux Spleen” value (mouse organs; Mouse 13, dose 0.5 mg/kg) was 5.7 p/s (×10^6). The “Organ Mean Total Flux Femur” value (mouse organs; Mouse 14, dose 0.5 mg/kg) was 2.2 p/s (×10^6), the “Organ Mean Total Flux Heart” value (mouse organs; Mouse 14, dose 0.5 mg/kg) was 4.4 p/s (×10^6) and the “Organ Mean Total Flux Kidney” value (mouse organs; Mouse 14, dose 0.5 mg/kg) was 26.8 p/s (×10^6). The “Organ Mean Total Flux Liver” value (mouse organs; Mouse 14, dose 0.5 mg/kg) was 2037 p/s (×10^6), the “Organ Mean Total Flux Lung” value (mouse organs; Mouse 14, dose 0.5 mg/kg) was 19.3 p/s (×10^6) and the “Organ Mean Total Flux Muscle” value (mouse organs; Mouse 14, dose 0.5 mg/kg) was 5.7 p/s (×10^6). For the same molecule, the “Organ Mean Total Flux Pancreas” value (mouse organs; Mouse 14, dose 0.5 mg/kg) was 1.2 p/s (×10^6) and the “Organ Mean Total Flux Spleen” value (mouse organs; Mouse 14, dose 0.5 mg/kg) was 8.5 p/s (×10^6).

From US20260234115A1, “LIPID COMPOUNDS, COMPOSITIONS, AND USES THEREOF” (Liberate Bio, Inc., priority 2023, published 2026)
